Consider 2 compounds from patent publication US20090118479A1, “Azo compound, ink composition, recording method and colored article” (priority 2005, published 2009).

SMILES strings stand for the structures.

A short description of the data set: solubility of the azo compound (to water). The data set is classed as physicochemical. An excerpt: The azo compound of the present invention can be used directly or in formulation with an appropriate carrier or the like, as a colorant for various kinds of articles. […] Said water-based composition is useful as a colorant for various kinds of articles. For example, said water-based composition can dye a material composed of cellulose. In addition, it can dye other materials having carbonamide bonds and widely used for dyeing of leather, textile and paper. Meanwhile, a typical use of the compound of the present invention includes an ink composition prepared by dissolving it in a liquid medium.

The compound `Nc1c(N=Nc2ccc3c(O)c(N=Nc4ccc5c(O)c(N=Nc6ccc(N=Nc7ccc(S(=O)(=O)O)cc7)cc6S(=O)(=O)O)c(S(=O)(=O)O)cc5c4S(=O)(=O)O)c(S(=O)(=O)O)cc3c2S(=O)(=O)O)cc(S(=O)(=O)O)c2cc(S(=O)(=O)O)c(N=Nc3ccc(S(=O)(=O)O)cc3[N+](=O)[O-])c(O)c12` [compound No. 2] gave a solubility of at least 100 mg/mL.
Then `Cc1cc(N=Nc2c(S(=O)(=O)O)cc3c(S(=O)(=O)O)c(N=Nc4c(S(=O)(=O)O)cc5c(S(=O)(=O)O)c(N=Nc6cc(S(=O)(=O)O)c7cc(S(=O)(=O)O)c(N=Nc8ccc([N+](=O)[O-])cc8S(=O)(=O)O)c(O)c7c6N)ccc5c4O)ccc3c2O)c(OCCCS(=O)(=O)O)cc1N=Nc1cc(S(=O)(=O)O)cc2cc(S(=O)(=O)O)cc(O)c12` [compound No. 13], with at least 100 mg/mL.

As usually defined, the solubility is how much of the substance goes into solution per volume. Low readings indicate a poorly soluble substance, high ones a readily soluble substance.
